The data set can be described thus: xn = mol fraction of the nth substance listed. To be noted: x2 = 0; for surface tension liquid-gas: Pendant drop shape; for viscosity: 101 kPa, Liquid, Concentric cylinders viscometry.

Numbers after ± are expanded uncertainties.

One may read the surface tension liquid-gas as the force per length acting along the surface. What is called viscosity is the internal friction of a fluid under shear.

On to `CCCCO` [butan-1-ol] + CCn1cc[n+](C)c1.COS(=O)(=O)[O-], for which the surface tension liquid-gas amounted to 23.9 ± 0.5 mN/m (298.15 K), 23.5 ± 0.5 mN/m (303.15 K), 23.1 ± 0.5 mN/m (308.15 K) and 22.7 ± 0.5 mN/m (313.15 K). Further, the viscosity was found to be 2.57 ± 0.15 mPa·s (298.15 K), 2.28 ± 0.14 mPa·s (303.15 K), 2.01 ± 0.12 mPa·s (308.15 K) and 1.75 ± 0.11 mPa·s (313.15 K).
As to `CCCCO` [butan-1-ol] + COS(=O)(=O)[O-].Cn1cc[n+](C)c1, the surface tension liquid-gas was 23.9 ± 0.5 mN/m (298.15 K), 23.5 ± 0.5 mN/m (303.15 K), 23.1 ± 0.5 mN/m (308.15 K) and 22.7 ± 0.5 mN/m (313.15 K). Moreover, the viscosity (298.15 K) is on record as 2.57 ± 0.15 mPa·s, the viscosity (303.15 K) came to 2.28 ± 0.14 mPa·s, the viscosity (308.15 K) came to 2.01 ± 0.12 mPa·s and the viscosity (313.15 K) is 1.75 ± 0.11 mPa·s.
As to `CCCCCO` [pentan-1-ol] + CCn1cc[n+](C)c1.COS(=O)(=O)[O-], the surface tension liquid-gas reads like this: (298.15 K) 24.7 ± 0.6 mN/m; (303.15 K) 24.3 ± 0.5 mN/m; (308.15 K) 23.9 ± 0.5 mN/m; (313.15 K) 23.5 ± 0.5 mN/m. For the same compound, the viscosity runs as follows: (298.15 K) 3.51 ± 0.21 mPa·s; (303.15 K) 2.84 ± 0.17 mPa·s; (308.15 K) 2.64 ± 0.16 mPa·s; (313.15 K) 2.34 ± 0.14 mPa·s.
`CCCCCO` [pentan-1-ol] + COS(=O)(=O)[O-].Cn1cc[n+](C)c1: the surface tension liquid-gas is, setting by setting: (298.15 K) 24.7 ± 0.6 mN/m; (303.15 K) 24.3 ± 0.5 mN/m; (308.15 K) 23.9 ± 0.5 mN/m; (313.15 K) 23.5 ± 0.5 mN/m. The viscosity is, setting by setting: (298.15 K) 3.51 ± 0.21 mPa·s; (303.15 K) 2.84 ± 0.17 mPa·s; (308.15 K) 2.64 ± 0.16 mPa·s; (313.15 K) 2.34 ± 0.14 mPa·s.
Regarding `CCCO` [propan-1-ol] + CCn1cc[n+](C)c1.COS(=O)(=O)[O-], the surface tension liquid-gas (298.15 K) worked out at 23.2 ± 0.5 mN/m, the surface tension liquid-gas (303.15 K) was determined as 22.8 ± 0.5 mN/m, the surface tension liquid-gas (308.15 K) is 22.3 ± 0.5 mN/m and the surface tension liquid-gas (313.15 K) was determined as 21.9 ± 0.5 mN/m. For the same compound, the viscosity is, setting by setting: (298.15 K) 1.94 ± 0.12 mPa·s; (303.15 K) 1.72 ± 0.1 mPa·s; (308.15 K) 1.54 ± 0.09 mPa·s; (313.15 K) 1.38 ± 0.08 mPa·s.
For `CCCO` [propan-1-ol] + COS(=O)(=O)[O-].Cn1cc[n+](C)c1, the surface tension liquid-gas (298.15 K) is reported as 23.2 ± 0.5 mN/m, the surface tension liquid-gas (303.15 K) was 22.8 ± 0.5 mN/m, the surface tension liquid-gas (308.15 K) turned out to be 22.3 ± 0.5 mN/m and the surface tension liquid-gas (313.15 K) is reported as 21.9 ± 0.5 mN/m. Further, the viscosity is, setting by setting: (298.15 K) 1.94 ± 0.12 mPa·s; (303.15 K) 1.72 ± 0.1 mPa·s; (308.15 K) 1.54 ± 0.09 mPa·s; (313.15 K) 1.38 ± 0.08 mPa·s.

Source of the values: the NIST ThermoML archive (doi:10.1021/acs.jced.8b00948).
